We go through one compound from publication PMC11240139, “Exploring the antitumor potential of novel quinoline derivatives via tubulin polymerization inhibition in breast cancer; design, synthesis and molecular docking” (RSC Advances, 2024).

The test system of test [1] is β-tubulin mRNA in MDA-MB-231 cells. In words: Tubulin expression assay (real-time PCR). In kind it is cell-based. Particulars: MDA-MB-231, IC50 dose, 48 h, normalized to β-actin. The method, then:
The cells were seeded in a six-well plate at a concentration of 3 × 10^5 cells per well. […] The cells were washed, collected and centrifuged at 2500 rpm for 15 min at 4 °C. The total RNA isolation kit (RNeasy extraction kit – QIAGEN) was used to isolate RNA according to the manufacturer's instructions.
Gene expression of β-tubulin was determined using iScript One-Step RT-PCR kit with SYBR Green (BIORAD) according to the manufacturer protocol. Primers sequences used for qPCR are illustrated in (Table 5). The genes expression was normalized to β-actin as the housekeeping gene. The protocol used was cDNA synthesis for 10 min at 50 °C, iScript Reverse transcriptase inactivation for 5 min at 95 °C and PCR cycling and detection (30 to 45 cycles): 10 s at 95 °C and 30 s at 55 °C to 60 °C.

The subject of test [2] is MDA-MB-231 cells. In words: Cell cycle analysis by flow cytometry (PI). The conditions noted are these: MDA-MB-231, IC50 dose, 24 h; control 10.42%. Format: cell-based. Here is the method:
Propidium Iodide Flow Cytometry Kit for Cell Cycle Analysis (Abcam) was used according to manufacturer's instructions. Briefly, MDA-MB 231 cells (2 × 10^5 cells) were seeded in 6-well plates and cultured for 24 h. […] Cells were collected, washed with PBS and centrifuged. Subsequently, the cells were re-suspended and fixed in 66% ethanol on ice for at least 2 h. The cells were stained with a working solution containing propidium iodide (PI) in the dark at 37 °C for 30 min. DNA content of the cells were measured by flow cytometry using FACSCalibur (BD Biosciences, Mountain View, CA). The data were analyzed using the CellQuest software (BD Biosciences).[21]
In general terms: A flow cytometer gives signals particle by particle.

The test system of test [3] is MDA-MB-231 cells. In words: Cell apoptosis analysis (annexin V-FITC/PI). Format: cell-based. The conditions noted are these: MDA-MB-231, IC50 dose, 24 h. The method, then:
Annexin-V-FITC Apoptosis Detection Kit (Biovision, USA) was used to determine apoptotic cells according to manufacturer's instructions. Briefly, MDA-MB 231 cells (2 × 10^5 cells) were seeded in 6-well plates and cultured for 24 h. […] Cells were collected, washed with PBS and centrifuged. The cells were re-suspended in 500 μL of 1× binding buffer. 5 μL of annexin V-FITC and 5 μL of propidium iodide (PI […]) were added and the cells were incubated in the dark at room temperature for 5 min. The fluorescence of the stained cells was analyzed by flow cytometry using FACSCalibur (BD Biosciences, Mountain View, CA). The data were analyzed using the CellQuest software (BD Biosciences).[53,54]

The next test concerns the target T1, tubulin (Sus scrofa, UniProt P02550+P02554).
T1 construct: purchased Cytoskeleton, USA
In words: Tubulin polymerization inhibition assay. Format: biochemical.

Structures are written as SMILES. “Also recorded” adds a separate entry of the source.

T1 sequence (P02554 whole entry): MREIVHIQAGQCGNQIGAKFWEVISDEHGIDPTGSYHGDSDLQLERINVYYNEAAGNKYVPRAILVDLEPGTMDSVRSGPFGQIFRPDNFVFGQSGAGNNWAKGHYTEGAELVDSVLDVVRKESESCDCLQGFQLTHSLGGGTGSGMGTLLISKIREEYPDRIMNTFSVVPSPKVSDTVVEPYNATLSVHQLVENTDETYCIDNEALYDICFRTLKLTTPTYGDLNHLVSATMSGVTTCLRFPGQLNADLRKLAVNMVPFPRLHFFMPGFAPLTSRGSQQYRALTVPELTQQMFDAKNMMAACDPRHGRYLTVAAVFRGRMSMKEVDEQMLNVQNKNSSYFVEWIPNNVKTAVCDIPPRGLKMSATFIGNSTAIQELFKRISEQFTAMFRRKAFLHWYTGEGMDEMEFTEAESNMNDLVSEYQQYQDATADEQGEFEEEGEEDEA
T1 sequence (P02550 whole entry): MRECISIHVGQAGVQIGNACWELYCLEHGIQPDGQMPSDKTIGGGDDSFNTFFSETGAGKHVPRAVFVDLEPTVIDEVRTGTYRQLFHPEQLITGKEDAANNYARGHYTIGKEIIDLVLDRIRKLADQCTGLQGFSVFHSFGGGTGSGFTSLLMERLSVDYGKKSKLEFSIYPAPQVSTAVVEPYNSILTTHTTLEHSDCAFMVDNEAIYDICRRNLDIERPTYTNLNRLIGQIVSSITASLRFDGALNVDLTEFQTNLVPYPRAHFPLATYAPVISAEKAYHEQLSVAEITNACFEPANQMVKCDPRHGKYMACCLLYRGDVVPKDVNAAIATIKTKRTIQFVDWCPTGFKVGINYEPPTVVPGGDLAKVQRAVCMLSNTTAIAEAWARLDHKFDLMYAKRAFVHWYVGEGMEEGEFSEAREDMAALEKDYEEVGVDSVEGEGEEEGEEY

`CCc1cccc2cc(-c3cc(-c4cc(OC)c(OC)c(OC)c4)[nH]c(=O)c3C#N)c(Cl)nc12` [Compound 4c, 4-(2-Chloro-8-ethylquinolin-3-yl)-2-oxo-6-(3,4,5-trimethoxyphenyl)-1,2-dihydropyridine-3-carbonitrile]: the “β-tubulin mRNA levels (relative gene expression) vs non-treated cells” value in test [1] is listed as “notably reduced; also recorded: significantly suppressed; also recorded: markedly reduced”. Further, the “cells population at G2 and M phases” value in the test on MDA-MB-231 cells [2] was 22.84%. Further, in the test on MDA-MB-231 cells [3], the “Early Apoptosis (%)” value came to 7.44 ± 1.59%, the “Late Apoptosis (%)” value was found to be 17.1 ± 1.9% and the “Necrosis (%)” value was 4.61 + 2%. For the same compound, it took 17 ± 0.3 µM to reach half-maximal inhibition against tubulin (IC50).

For orientation: IC50 means the concentration needed to halve the response being measured. Low readings indicate greater potency, high ones weaker potency.
